pIC50, pKi: −log10 of the molar value.
How the values were obtained:
[1] = target: T1, Substance-K receptor (Homo sapiens, UniProt P21452); assay type: cell membranes, CHO, Membrane; conditions: for IC50: cho; as to all read-outs here: in other assays of this panel Not Active means under 50% inhibition at 10 µM
T1 sequence (P21452 whole entry): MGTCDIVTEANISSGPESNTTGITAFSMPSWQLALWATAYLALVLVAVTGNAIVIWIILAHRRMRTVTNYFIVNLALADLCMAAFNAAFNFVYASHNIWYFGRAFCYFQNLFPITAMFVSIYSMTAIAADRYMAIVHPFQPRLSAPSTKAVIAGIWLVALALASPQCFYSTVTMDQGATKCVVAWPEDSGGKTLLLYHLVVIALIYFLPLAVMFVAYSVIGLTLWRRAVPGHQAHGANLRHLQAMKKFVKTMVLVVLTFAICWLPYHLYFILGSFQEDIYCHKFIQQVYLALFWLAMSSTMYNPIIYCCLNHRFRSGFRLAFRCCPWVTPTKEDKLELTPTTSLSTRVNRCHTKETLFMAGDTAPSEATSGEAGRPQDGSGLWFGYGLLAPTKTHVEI

[2] = target: C-C chemokine receptor type 2 (Homo sapiens, UniProt P41597); assay type: cell membranes, CHO-K1, Membrane; conditions: for IC50: cho-k1; as to all read-outs here: in other assays of this panel Not Active means under 50% inhibition at 10 µM
[3] = target: C-C chemokine receptor type 5 (Homo sapiens, UniProt P51681); assay type: cell membranes, HEK293, Membrane; conditions: for IC50: hek293; as to all read-outs here: in other assays of this panel Not Active means under 50% inhibition at 10 µM
[4] = target: Receptor tyrosine-protein kinase erbB-2 (Homo sapiens, UniProt P04626); assay type: cell-based; conditions: insect cells;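 also: inhibition of HER2 kinase enzyme activity, measured with Poly(Glu:Tyr) as the phosphorylation substrate; in other assays of this panel Not Active means under 50% inhibition at 10 µM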
[5] = target: Melanocortin receptor 5 (Homo sapiens, UniProt P33032); assay type: cell membranes, HEK293, Membrane; conditions: for IC50: hek293
[6] = DRUGMATRIX: Glutamate, Kainate radioligand binding (ligand: [3H] Kainic acid); assay type: cell membranes, Rattus norvegicus, Wistar, Brain, Membrane; conditions: Not Active = under 50% inhibition at 10 µM

Sequence of Melanocortin receptor 5 (P33032 whole entry): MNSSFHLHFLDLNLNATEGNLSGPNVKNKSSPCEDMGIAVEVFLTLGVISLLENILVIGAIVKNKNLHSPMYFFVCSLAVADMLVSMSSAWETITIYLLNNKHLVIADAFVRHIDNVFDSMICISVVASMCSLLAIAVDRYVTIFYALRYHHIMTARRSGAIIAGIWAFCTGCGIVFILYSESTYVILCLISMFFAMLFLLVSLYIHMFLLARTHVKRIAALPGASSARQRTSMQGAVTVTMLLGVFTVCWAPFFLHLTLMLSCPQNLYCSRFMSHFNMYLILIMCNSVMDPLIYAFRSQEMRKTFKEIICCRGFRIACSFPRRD
Sequence of Receptor tyrosine-protein kinase erbB-2 (P04626 whole entry): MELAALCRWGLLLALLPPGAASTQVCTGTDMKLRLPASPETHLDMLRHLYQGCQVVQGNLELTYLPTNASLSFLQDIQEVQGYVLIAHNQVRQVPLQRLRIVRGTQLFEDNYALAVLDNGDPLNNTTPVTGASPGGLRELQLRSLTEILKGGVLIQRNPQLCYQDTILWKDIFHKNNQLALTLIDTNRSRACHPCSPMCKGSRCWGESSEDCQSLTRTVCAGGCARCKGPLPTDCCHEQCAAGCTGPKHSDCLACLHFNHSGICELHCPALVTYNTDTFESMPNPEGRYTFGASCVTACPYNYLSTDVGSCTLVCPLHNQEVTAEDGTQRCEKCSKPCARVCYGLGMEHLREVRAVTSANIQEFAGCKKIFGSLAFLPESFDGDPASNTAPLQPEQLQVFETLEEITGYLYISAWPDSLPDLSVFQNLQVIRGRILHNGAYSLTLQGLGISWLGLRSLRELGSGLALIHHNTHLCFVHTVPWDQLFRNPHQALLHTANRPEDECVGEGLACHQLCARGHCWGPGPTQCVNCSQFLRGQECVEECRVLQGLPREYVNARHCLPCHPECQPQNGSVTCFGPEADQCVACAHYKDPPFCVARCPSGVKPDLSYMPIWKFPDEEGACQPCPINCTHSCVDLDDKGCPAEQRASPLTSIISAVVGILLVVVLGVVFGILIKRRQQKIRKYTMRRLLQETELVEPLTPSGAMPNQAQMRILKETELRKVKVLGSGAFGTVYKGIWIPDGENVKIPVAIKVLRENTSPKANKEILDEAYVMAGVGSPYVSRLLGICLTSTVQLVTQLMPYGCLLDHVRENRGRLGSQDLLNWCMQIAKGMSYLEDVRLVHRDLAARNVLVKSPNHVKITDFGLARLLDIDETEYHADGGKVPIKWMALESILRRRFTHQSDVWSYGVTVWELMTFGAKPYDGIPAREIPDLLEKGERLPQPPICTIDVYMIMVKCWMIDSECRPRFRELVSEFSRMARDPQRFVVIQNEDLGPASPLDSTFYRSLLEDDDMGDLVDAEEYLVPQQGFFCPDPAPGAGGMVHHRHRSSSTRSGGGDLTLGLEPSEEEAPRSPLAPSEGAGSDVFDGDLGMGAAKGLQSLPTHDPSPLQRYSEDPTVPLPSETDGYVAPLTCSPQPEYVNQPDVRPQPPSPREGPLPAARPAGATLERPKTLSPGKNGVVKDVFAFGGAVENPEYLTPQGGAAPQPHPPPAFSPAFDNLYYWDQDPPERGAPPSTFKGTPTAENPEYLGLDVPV
Sequence of C-C chemokine receptor type 2 (P41597 whole entry): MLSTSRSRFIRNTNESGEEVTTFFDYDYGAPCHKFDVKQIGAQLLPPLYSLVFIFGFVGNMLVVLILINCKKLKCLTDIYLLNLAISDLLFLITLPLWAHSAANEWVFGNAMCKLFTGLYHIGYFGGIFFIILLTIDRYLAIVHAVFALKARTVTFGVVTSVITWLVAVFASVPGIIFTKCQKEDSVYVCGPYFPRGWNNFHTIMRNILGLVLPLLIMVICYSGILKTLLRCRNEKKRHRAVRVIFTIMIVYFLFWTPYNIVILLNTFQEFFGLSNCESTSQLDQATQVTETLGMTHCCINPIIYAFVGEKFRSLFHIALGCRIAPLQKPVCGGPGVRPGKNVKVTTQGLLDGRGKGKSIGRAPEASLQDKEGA
Sequence of C-C chemokine receptor type 5 (P51681 whole entry): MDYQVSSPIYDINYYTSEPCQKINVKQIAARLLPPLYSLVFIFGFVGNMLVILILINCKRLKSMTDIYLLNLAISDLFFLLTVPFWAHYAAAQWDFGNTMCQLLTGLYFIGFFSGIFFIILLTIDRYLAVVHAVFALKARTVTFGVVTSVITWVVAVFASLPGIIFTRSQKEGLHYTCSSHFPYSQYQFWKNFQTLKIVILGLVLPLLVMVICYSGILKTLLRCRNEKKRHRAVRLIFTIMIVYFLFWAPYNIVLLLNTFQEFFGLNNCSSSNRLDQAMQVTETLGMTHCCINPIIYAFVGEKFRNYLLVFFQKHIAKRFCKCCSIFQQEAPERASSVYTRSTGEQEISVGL

Structure (SMILES)	IC50 [1]	IC50 [2]	IC50 [3]	IC50 [4]	IC50 [5]	IC50 [6]	Ki [6]	pIC50 ([2]; read-out: IC50)	pKi ([2]; read-out: Ki)	pIC50 ([3]; read-out: IC50)	pKi ([3]; read-out: Ki)	pIC50 ([1]; read-out: IC50)	pKi ([1]; read-out: Ki)	pIC50 ([5]; read-out: IC50)	pKi ([5]; read-out: Ki)
Cc1cc2c(s1)Nc1ccccc1N=C2N1CCN(C)CC1 [OLANZAPINE]	Not Active	Not Active	Not Active	Not Active	Not Active	–	–	–	–	–	–	–	–	–	–
CC1(C)[C@H](C(=O)O)N2C(=O)C[C@H]2S1(=O)=O [SULBACTAM]	Not Active	Not Active	Not Active	Not Active	Not Active	Not Active	Not Active	–	–	–	–	–	–	–	–
Oc1ccc(/C=C/c2cc(O)cc(O)c2)cc1 [RESVERATROL]	Not Active	Not Active	Not Active	Not Active	Not Active	Not Active	Not Active	–	–	–	–	–	–	–	–
O=C1CC[C@@]2(O)[C@H]3Cc4ccc(O)c5c4[C@@]2(CCN3CC2CC2)[C@H]1O5 [NALTREXONE]	Not Active	Not Active	Not Active	Not Active	Not Active	Not Active	Not Active	–	–	–	–	–	–	–	–
Cc1nnc(NS(=O)(=O)c2ccc(N)cc2)s1 [SULFAMETHIZOLE]	Not Active	Not Active	Not Active	Not Active	Not Active	Not Active	Not Active	–	–	–	–	–	–	–	–
C=CCc1ccc2c(c1)OCO2 [SAFROLE]	Not Active	Not Active	Not Active	Not Active	Not Active	Not Active	Not Active	–	–	–	–	–	–	–	–
Cc1cn([C@H]2C=C[C@@H](CO)O2)c(=O)[nH]c1=O [STAVUDINE]	Not Active	Not Active	Not Active	Not Active	Not Active	Not Active	Not Active	–	–	–	–	–	–	–	–
CC1=C(/C=C/C(C)=C/C=C/C(C)=C/C(=O)O)C(C)(C)CCC1 [TRETINOIN]	Not Active	Not Active	Not Active	Not Active	Not Active	Not Active	Not Active	–	–	–	–	–	–	–	–
Nc1nc(N)c2nc(-c3ccccc3)c(N)nc2n1	Not Active	Not Active	Not Active	Not Active	Not Active	Not Active	Not Active	–	–	–	–	–	–	–	–
CN1C(=O)OC(C)(C)C1=O [TRIMETHADIONE]	Not Active	Not Active	Not Active	Not Active	Not Active	Not Active	Not Active	–	–	–	–	–	–	–	–
Cc1ccc(S(=O)(=O)NC(=O)NN2CCCCCC2)cc1 [TOLAZAMIDE]	Not Active	Not Active	Not Active	Not Active	Not Active	Not Active	Not Active	–	–	–	–	–	–	–	–
O=C(O)c1cc(/N=N/c2ccc(S(=O)(=O)Nc3ccccn3)cc2)ccc1O [SULFASALAZINE]	Not Active	Not Active	Not Active	Not Active	Not Active	Not Active	Not Active	–	–	–	–	–	–	–	–
CCN(CC)C(=S)SSC(=S)N(CC)CC	Not Active	–	–	Not Active	Not Active	Not Active	Not Active	5.61	6.02	4.63	4.74	–	–	–	–
CS(=O)(=O)c1ccc(C2=C(c3ccccc3)C(=O)OC2)cc1 [ROFECOXIB]	Not Active	Not Active	Not Active	Not Active	Not Active	Not Active	Not Active	–	–	–	–	–	–	–	–
Cc1cnc(NC(=O)C2=C(O)c3ccccc3S(=O)(=O)N2C)s1 [MELOXICAM]	Not Active	Not Active	Not Active	Not Active	Not Active	Not Active	Not Active	–	–	–	–	–	–	–	–
C1CCN2C[C@@H]3C[C@@H](CN4CCCC[C@@H]34)[C@H]2C1 [SPARTEINE]	Not Active	Not Active	Not Active	Not Active	Not Active	Not Active	Not Active	–	–	–	–	–	–	–	–
CO[C@@H]1[C@@H](OC)[C@H](C)[C@@](O)(CC(=O)O)O[C@H]1[C@H](C)[C@H]1O[C@@]2(CC[C@@](C)([C@H]3CC[C@@](C)([C@@H]4O[C@@H]([C@H]5O[C@](C)(O)[C@H](C)C[C@@H]5C)C[C@@H]4O[C@@H]4C[C@H](OC)[C@@H](OC)[C@H](C)O4)O3)O2)C[C@H](O)[C@H]1C.N [MADURAMICIN]	Not Active	Not Active	Not Active	Not Active	Not Active	Not Active	Not Active	–	–	–	–	–	–	–	–
CC[C@@]1(O)C(=O)OCc2c1cc1n(c2=O)Cc2cc3c(CN(C)C)c(O)ccc3nc2-1 [TOPOTECAN]	Not Active	Not Active	Not Active	Not Active	Not Active	Not Active	Not Active	–	–	–	–	–	–	–	–
C#C[C@]1(O)CC[C@H]2[C@@H]3[C@H](C)CC4=C(CCC(=O)C4)[C@H]3CC[C@@]21C [TIBOLONE]	Not Active	Not Active	Not Active	Not Active	Not Active	Not Active	Not Active	–	–	–	–	–	–	–	–
C[N+]1(C)[C@@H]2C[C@@H](OC(=O)[C@H](CO)c3ccccc3)C[C@H]1[C@@H]1O[C@@H]12.[Br-] [METHSCOPOLAMINE BROMIDE]	Not Active	Not Active	Not Active	Not Active	Not Active	Not Active	Not Active	–	–	–	–	–	–	–	–
CC[C@H](C)[C@@H](CO[C@@H](Cc1ccccc1)C(=O)N[C@@H](CCS(C)(=O)=O)C(=O)OC(C)C)NC[C@@H](N)CS	–	Not Active	Not Active	Not Active	–	Not Active	Not Active	–	–	–	–	5.79	6.27	6.91	6.94
CCN1CCCC1CNC(=O)c1cc(S(N)(=O)=O)ccc1OC (configuration not stated) [SULPIRIDE]	Not Active	Not Active	Not Active	Not Active	Not Active	Not Active	Not Active	–	–	–	–	–	–	–	–
CC[C@H](C)C(=O)O[C@H]1CCC=C2C=C[C@H](C)[C@H](CC[C@@H]3C[C@@H](O)CC(=O)O3)[C@H]21 [MEVASTATIN]	Not Active	Not Active	Not Active	Not Active	Not Active	Not Active	Not Active	–	–	–	–	–	–	–	–
C[C@]12CCC(=O)C[C@@H]1CC[C@@H]1[C@@H]2CC[C@]2(C)[C@@H](O)CC[C@@H]12 [STANOLONE]	Not Active	Not Active	Not Active	Not Active	Not Active	Not Active	Not Active	–	–	–	–	–	–	–	–
CC(N)C12CC3CC(CC(C3)C1)C2 (configuration not stated) [RIMANTADINE]	Not Active	Not Active	Not Active	Not Active	Not Active	Not Active	Not Active	–	–	–	–	–	–	–	–
CNCCCC12CCC(c3ccccc31)c1ccccc12 [MAPROTILINE]	Not Active	Not Active	Not Active	Not Active	Not Active	–	–	–	–	–	–	–	–	–	–
CN(C)CCC=C1c2ccccc2COc2ccccc21 [DOXEPIN]	Not Active	Not Active	Not Active	Not Active	Not Active	–	–	–	–	–	–	–	–	–	–

Reference: ChEMBL document CHEMBL1909046, “DrugMatrix in vitro pharmacology data”
